Measurements taken from patent publication US20150315202A1, “CHLORIN DERIVATIVE USEFUL IN PHOTODYNAMIC THERAPY AND DIAGNOSIS” (RMW CHO GROUP LIMITED, priority 2012, published 2015).
Entries after “also recorded” stand apart in the source; their conditions may differ.

Key:
[1] = Absorption spectra of chlorin e4 sodium solutions; type: physicochemical; conditions: all solvents (ethanol, water, water + SDS)
Experimental: (§1) Absorption spectra were recorded using computerized spectrophotometers Hitachi 3400 (Japan) and SF-2000 (Russia). Fluorescence spectra were measured with a computerized spectrofluorimeter Perkin-Elmer MPF-44B. 10 mm wide quartz cuvettes were used for absorption and fluorescence measurements. Fluorescence was detected at a right angle to the excitation beam. The spectral bandwidth of the monochromator was 3 nm. […] The fluorescence quantum yields (ΦF) were determined using as a reference, solutions of TPPS (m-tetrakis(p-sulfonatophenyl)porphine) in ethanol. According to the literature, the most likely fluorescence quantum yield of TPPS in air-saturated water and ethanol is equal to 0.08 (K. Kalyanasundaram and M. Neumann-Spallart, Photophysical and redox properties of water soluble porphyrins in aqueous media, J. Phys. Chem., 1982, 86, 5163-5169; and A. T. Gradyushko, A. N. Sevchenko, K. N. Solovyov and M. P. Tsvirko, Energetics of photophysical processes in chlorophyll-like molecules, Photochem. Photobiol., 1970, 11, 387-400). The fluorescence of the samples was excited by the monochromatic light corresponding to the maximum of the Soret bands: 415 nm for TPPS in ethanol and 413 nm for TPPS in water, and 403 nm for chlorin e4 sodium in water and ethanol. The monochromator bandwidth was 3 nm. The fluorescence quantum yields (ΦF) were calculated using the following equation: […]

[2] = Fluorescence spectra and fluorescence quantum yield (reference TPPS); type: physicochemical
Experimental: as §1
where (ΦTPP is the quantum yield of TPPS fluorescence, Sc is the square under the fluorescence spectrum of the chlorin e4 sodium sample, STPP is the square under the fluorescence spectrum of TPPS, and Dc and DTPP are absorbance (optical density) of the chlorin e4 sodium and TPPS respectively at the excitation wavelengths. The obtained results were collated using relative units of intensity of the excited light at the excitation wavelengths. The intensities of the monochromatic light were measured using a calibrated silicon detector from Optical Power Meter System ThorLabs (Karlsfeld, Germany).

[3] = test system: invasive ductile breast cancer and lymph node metastases; test: In vivo studies Example 1: patient, oral chlorin e4 sodium plus laser and LED light; set-up: species or system human
Experimental: A patient with invasive ductile breast cancer and lymph node metastases in the right arm pit, was treated successfully. Prior to treatment a large cancer mass in the right breast was observed and a small cancer mass in the right arm pit. The treatment consisted of three courses. For each course, five doses of 62.5-187.5 mg chlorin e4 sodium were administered orally over the course of eight days. 24-48 hours after each oral dose of chlorin e4 sodium, the patient was treated with laser and LED light having a wavelength of 660 nm and 760 nm.
Subsequently the patient was treated with two further courses. Again, for each course, five doses of 62.5-187.5 mg chlorin e4 sodium were administered orally over the course of eight days. 24-48 hours after each oral dose of chlorin e4 sodium, the patient was treated with laser and LED light having a wavelength of 660 nm and 760 nm. Additionally an interstitial light treatment using a fine needle was performed on the breast with an optical fibre laser having a wavelength of 660 nm and 760 nm.

[4] = test system: stage IVB Hodgkin's lymphoma with metastases; test: In vivo studies Example 4: patient, oral chlorin e4 sodium plus laser and LED light; set-up: species or system human
Experimental: (§2) A patient with stage IVB Hodgkin's lymphoma with metastases in the liver, lymphatic system, spleen, lung and bones, was treated successfully. The treatment consisted of three courses. For each course, five doses of 62.5-187.5 mg chlorin e4 sodium were administered orally over the course of eight days. 24-48 hours after each oral dose of chlorin e4 sodium, the patient was treated with laser and LED light having a wavelength of 660 nm and 760 nm.
Subsequently the patient was treated with a further two courses. Again, for each course, five doses of 62.5-187.5 mg chlorin e4 sodium were administered orally over the course of eight days. 24-48 hours after each oral dose of chlorin e4 sodium, the patient was treated with laser and LED light having a wavelength of 660 nm and 760 nm.

lung cancer = test: In vivo studies Example 6: patient, oral chlorin e4 sodium plus laser and LED light; set-up: species or system human; conditions: immediately after the last of three courses
Experimental: as §2, with “with” for “with stage IVB Hodgkin's lymphoma with metastases in the liver, lymphatic system, spleen,”, “cancer” for “and bones,”

[5] = test system: breast cancer in the right breast; test: In vivo studies Example 9: patient, oral chlorin e4 sodium plus laser and LED light; set-up: species or system human
Experimental: (§3) A patient with breast cancer in the right breast was treated successfully. The treatment consisted of three courses. For each course, five doses of 62.5-187.5 mg chlorin e4 sodium were administered orally over the course of eight days. 24-48 hours after each oral dose of chlorin e4 sodium, the patient was treated with laser and LED light having a wavelength of 660 nm and 760 nm.

[6] = test system: brain cancer with metastases in the lung and lymph nodes; test: In vivo studies Example 12: patient, oral chlorin e4 sodium plus laser and LED light; set-up: species or system human; conditions: after two courses
Experimental: as §3, with “brain” for “breast”, “cancer with metastases” for “cancer”, “lung and lymph nodes,” for “right breast”, “successfully. […] The patient experienced occasional epileptic seizures and severe headaches.” for “successfully.”, “two” for “three”

With `C=Cc1c(C)c2cc3nc(c(C)c4[nH]c(cc5nc(cc1[nH]2)C(C)=C5CC)c(C)c4C(=O)O)[C@@H](CCC(=O)O)[C@@H]3C` [chlorin e4 sodium] the “Aggregation state from absorption spectra” value [1] was “mostly monomeric”, the “Fluorescence quantum yield (ranking among solvents)” value (shortened to “Fluorescence quantum yield”) ([2]; SDS containing water) was “slightly less” and the “Fluorescence quantum yield” value ([2]; ethanol) was “highest”. The “Fluorescence quantum yield” value ([2]; water without SDS) was “smallest; also recorded: still high”, the “Response in the breast and lymph nodes (PET/CT)” value ([3]; after the fifth and final treatment course) was “complete response” and the “Reduction in size of large cancer mass in the breast (doppler ultrasound)” value ([3]; after the fourth treatment course) was “about 25%”. The “Size of large cancer mass in the breast (doppler ultrasound)” value ([3]; after three courses) was “had not reduced in size”, the “Vascularity of large cancer mass in the breast (doppler ultrasound)” value ([3]; after three courses) was “almost no vascularity” and the “Vascularity of smaller lymph node cancer mass (doppler ultrasound)” value ([3]; after three courses) was “almost no vascularity”. The “Size of smaller lymph node cancer mass” value ([3]; after three courses, reduced from 1.9 cm) was 1 cm, the “Reactions at the breast tumour site” value ([3]; inflammatory response after each course, burning sensation towards the end of the second course) was “inflammatory response; also recorded: burning sensation” and the Patient status ([3]; two years and three months after starting, five months after completion of treatment) was “alive and well”. The “Response (PET/CT)” value ([4]; after a further two courses) was “good treatment response”, the “Tumours in areas treated with light (CT)” value ([4]; after three courses) was “some tumours disappeared altogether and some tumours reduced in size” and the Survival time ([4]; life expectancy before treatment only two weeks) was “two years and two months”. The CT scan finding (lung cancer) was “complete recovery from lung cancer”, the “Response of the breasts (mammography, ultrasound and PET/CT)” value ([5]; before and after three courses) was “complete response” and the Patient status ([5]; one year and seven months after starting, 10 months after completion of treatment) was “alive and well”. For the same compound, the Side effects ([5]; three courses) was “no side effects”, the “Lymph nodes (PET/CT)” value [6] was “not yet clear” and the “Metabolic activity in the area of the brain tumour (PET/CT)” value [6] was “no metabolic activity”. For the same compound, the “Response in the lungs (PET/CT)” value [6] was “complete response”.
